9 cell lines from the supplement of paper PMC10307832 can be followed below.

Common to all, as to test: relative viability (nuclei count vs DMSO), 5 days (fraction); higher = more cells survive
Compound in the experiment “Linifanib + Pictilisib”: Cc1ccc(F)c(NC(=O)Nc2ccc(-c3cccc4[nH]nc(N)c34)cc2)c1 [Linifanib] + CS(=O)(=O)N1CCN(Cc2cc3nc(-c4cccc5[nH]ncc45)nc(N4CCOCC4)c3s2)CC1 [Pictilisib] (partner 1 µM)
Put shortly:
(§1)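 Medians of duplicate plates are given as relative viability. That measure is the nuclei count in treated wells divided by the count in vehicle wells. Counts were taken on 4× images of lung cancer cell lines in 1536-well plates, 5 days after pin-tool dosing the day after seeding with one drug alone or a fixed anchor-drug dose plus five library-drug doses (not always all listed) in √10 steps.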

Compound in the experiment “Linifanib + Phenformin”: Cc1ccc(F)c(NC(=O)Nc2ccc(-c3cccc4[nH]nc(N)c34)cc2)c1 [Linifanib] + N=C(N)NC(=N)NCCc1ccccc1 [Phenformin] (partner 250 µM)
Put shortly: as §1

Compound in the experiment “Linifanib + Lapatinib”: Cc1ccc(F)c(NC(=O)Nc2ccc(-c3cccc4[nH]nc(N)c34)cc2)c1 [Linifanib] + CS(=O)(=O)CCNCc1ccc(-c2ccc3ncnc(Nc4ccc(OCc5cccc(F)c5)c(Cl)c4)c3c2)o1 [Lapatinib] (partner 2 µM)
The method, boiled down: as §1

Compound in the experiment “Linifanib + Palbociclib”: Cc1ccc(F)c(NC(=O)Nc2ccc(-c3cccc4[nH]nc(N)c34)cc2)c1 [Linifanib] + CC(=O)c1c(C)c2cnc(Nc3ccc(N4CCNCC4)cn3)nc2n(C2CCCC2)c1=O [Palbociclib] (partner 0.5 µM)
Put shortly: as §1

Compound in the experiment “Linifanib + Vorinostat”: Cc1ccc(F)c(NC(=O)Nc2ccc(-c3cccc4[nH]nc(N)c34)cc2)c1 [Linifanib] + O=C(CCCCCCC(=O)Nc1ccccc1)NO [Vorinostat] (partner 1 µM)
The method, boiled down: as §1

Compound in the experiment “Linifanib + Alpelisib”: Cc1ccc(F)c(NC(=O)Nc2ccc(-c3cccc4[nH]nc(N)c34)cc2)c1 [Linifanib] + Cc1nc(NC(=O)N2CCC[C@H]2C(N)=O)sc1-c1ccnc(C(C)(C)C(F)(F)F)c1 [Alpelisib] (partner 2 µM)
The method, boiled down:
as §1

On to NCI-H1650, for which the relative viability amounted to 0.661 with Linifanib + Pictilisib (first compound 0.03162 µM); 0.671 in the experiment with Linifanib + Pictilisib (first compound 0.1 µM); 0.5 with Linifanib + Pictilisib (first compound 0.3162 µM); 0.428 in the experiment with Linifanib + Phenformin (first compound 0.03162 µM); 0.571 with Linifanib + Phenformin (first compound 0.1 µM); 0.412 with Linifanib + Phenformin (first compound 0.3162 µM). Moreover, the relative viability in the experiment with Linifanib + Lapatinib (first compound 0.03162 µM) was determined as 0.797; in the experiment with Linifanib + Lapatinib (first compound 0.1 µM), 0.9; with Linifanib + Lapatinib (first compound 0.3162 µM) it was 0.721; with Linifanib + Palbociclib (first compound 0.03162 µM) it was 0.35; in the experiment with Linifanib + Palbociclib (first compound 0.1 µM), 0.399; with Linifanib + Palbociclib (first compound 0.3162 µM), 0.351. Further, the relative viability with Linifanib + Vorinostat (first compound 0.03162 µM) turned out to be 0.528; with Linifanib + Vorinostat (first compound 0.1 µM) it was 0.602; with Linifanib + Vorinostat (first compound 0.3162 µM), 0.655.

Take PC-14: the relative viability with Linifanib + Pictilisib (first compound 0.03162 µM) stood at 0.617; in the experiment with Linifanib + Pictilisib (first compound 0.1 µM), 0.823; with Linifanib + Pictilisib (first compound 0.3162 µM), 0.682; in the experiment with Linifanib + Alpelisib (first compound 0.03162 µM) it was 0.907; with Linifanib + Alpelisib (first compound 0.1 µM), 0.958; in the experiment with Linifanib + Alpelisib (first compound 0.3162 µM), 0.88. The relative viability was 0.557 in the experiment with Linifanib + Phenformin (first compound 0.03162 µM); 0.59 with Linifanib + Phenformin (first compound 0.1 µM); 0.491 in the experiment with Linifanib + Phenformin (first compound 0.3162 µM); 0.32 with Linifanib + Lapatinib (first compound 0.03162 µM); 0.436 with Linifanib + Lapatinib (first compound 0.1 µM); 0.305 with Linifanib + Lapatinib (first compound 0.3162 µM). Further, the relative viability with Linifanib + Palbociclib (first compound 0.03162 µM) is 0.444; in the experiment with Linifanib + Palbociclib (first compound 0.1 µM), 0.584; with Linifanib + Palbociclib (first compound 0.3162 µM), 0.463; in the experiment with Linifanib + Vorinostat (first compound 0.03162 µM), 0.784; in the experiment with Linifanib + Vorinostat (first compound 0.1 µM) it was 0.83; in the experiment with Linifanib + Vorinostat (first compound 0.3162 µM), 0.768.

With NCI-H358, the relative viability is 0.407 in the experiment with Linifanib + Pictilisib (first compound 0.03162 µM); 0.37 in the experiment with Linifanib + Pictilisib (first compound 0.1 µM); 0.32 with Linifanib + Pictilisib (first compound 0.3162 µM); 0.897 with Linifanib + Alpelisib (first compound 0.03162 µM); 0.879 in the experiment with Linifanib + Alpelisib (first compound 0.1 µM); 0.795 with Linifanib + Alpelisib (first compound 0.3162 µM). The relative viability is 0.375 with Linifanib + Phenformin (first compound 0.03162 µM); 0.385 with Linifanib + Phenformin (first compound 0.1 µM); 0.322 in the experiment with Linifanib + Phenformin (first compound 0.3162 µM); 0.531 with Linifanib + Lapatinib (first compound 0.03162 µM); 0.543 with Linifanib + Lapatinib (first compound 0.1 µM); 0.433 with Linifanib + Lapatinib (first compound 0.3162 µM). The relative viability with Linifanib + Palbociclib (first compound 0.03162 µM) stood at 0.132; with Linifanib + Palbociclib (first compound 0.1 µM), 0.126; with Linifanib + Palbociclib (first compound 0.3162 µM), 0.114; in the experiment with Linifanib + Vorinostat (first compound 0.03162 µM) it was 0.72; in the experiment with Linifanib + Vorinostat (first compound 0.1 µM), 0.723; with Linifanib + Vorinostat (first compound 0.3162 µM), 0.803.

Take EPLC-272H: the relative viability was 0.355 in the experiment with Linifanib + Pictilisib (first compound 0.03162 µM); 0.324 with Linifanib + Pictilisib (first compound 0.1 µM); 0.28 in the experiment with Linifanib + Pictilisib (first compound 0.3162 µM); 0.75 in the experiment with Linifanib + Alpelisib (first compound 0.03162 µM); 1.02 in the experiment with Linifanib + Alpelisib (first compound 0.1 µM); 0.909 with Linifanib + Alpelisib (first compound 0.3162 µM). For the same cell line, the relative viability with Linifanib + Phenformin (first compound 0.03162 µM) turned out to be 0.298; in the experiment with Linifanib + Phenformin (first compound 0.1 µM), 0.318; with Linifanib + Phenformin (first compound 0.3162 µM) it was 0.325; in the experiment with Linifanib + Lapatinib (first compound 0.03162 µM) it was 0.956; in the experiment with Linifanib + Lapatinib (first compound 0.1 µM), 0.913; in the experiment with Linifanib + Lapatinib (first compound 0.3162 µM) it was 0.814. In addition, the relative viability with Linifanib + Palbociclib (first compound 0.03162 µM) was determined as 0.333; with Linifanib + Palbociclib (first compound 0.1 µM), 0.338; in the experiment with Linifanib + Palbociclib (first compound 0.3162 µM), 0.294; with Linifanib + Vorinostat (first compound 0.03162 µM), 0.522; with Linifanib + Vorinostat (first compound 0.1 µM), 0.467; with Linifanib + Vorinostat (first compound 0.3162 µM), 0.513.

Regarding HCC-15, the relative viability with Linifanib + Pictilisib (first compound 0.03162 µM) worked out at 0.833; with Linifanib + Pictilisib (first compound 0.1 µM) it was 0.804; with Linifanib + Pictilisib (first compound 0.3162 µM), 0.71; with Linifanib + Alpelisib (first compound 0.03162 µM) it was 0.881; with Linifanib + Alpelisib (first compound 0.1 µM), 0.941; in the experiment with Linifanib + Alpelisib (first compound 0.3162 µM) it was 0.887. Besides, the relative viability with Linifanib + Phenformin (first compound 0.03162 µM) is 0.501; with Linifanib + Phenformin (first compound 0.1 µM), 0.567; with Linifanib + Phenformin (first compound 0.3162 µM), 0.479; in the experiment with Linifanib + Lapatinib (first compound 0.03162 µM), 0.841; in the experiment with Linifanib + Lapatinib (first compound 0.1 µM) it was 0.839; with Linifanib + Lapatinib (first compound 0.3162 µM) it was 0.853. For the same cell line, the relative viability with Linifanib + Palbociclib (first compound 0.03162 µM) stood at 0.723; in the experiment with Linifanib + Palbociclib (first compound 0.1 µM), 0.741; in the experiment with Linifanib + Palbociclib (first compound 0.3162 µM) it was 0.842; in the experiment with Linifanib + Vorinostat (first compound 0.03162 µM), 0.796; with Linifanib + Vorinostat (first compound 0.1 µM), 0.838; in the experiment with Linifanib + Vorinostat (first compound 0.3162 µM) it was 0.792.

With NCI-H1993, the relative viability with Linifanib + Pictilisib (first compound 0.03162 µM) amounted to 0.838; in the experiment with Linifanib + Pictilisib (first compound 0.1 µM), 0.77; in the experiment with Linifanib + Pictilisib (first compound 0.3162 µM), 0.963; with Linifanib + Alpelisib (first compound 0.03162 µM) it was 0.628; with Linifanib + Alpelisib (first compound 0.1 µM), 0.711; with Linifanib + Alpelisib (first compound 0.3162 µM) it was 0.646. In addition, the relative viability came out at 0.44 with Linifanib + Phenformin (first compound 0.03162 µM); 0.514 with Linifanib + Phenformin (first compound 0.1 µM); 0.504 with Linifanib + Phenformin (first compound 0.3162 µM); 0.796 with Linifanib + Lapatinib (first compound 0.03162 µM); 0.853 in the experiment with Linifanib + Lapatinib (first compound 0.1 µM); 0.878 in the experiment with Linifanib + Lapatinib (first compound 0.3162 µM). Besides, the relative viability with Linifanib + Palbociclib (first compound 0.03162 µM) was 0.688; with Linifanib + Palbociclib (first compound 0.1 µM) it was 0.826; in the experiment with Linifanib + Palbociclib (first compound 0.3162 µM), 0.725; in the experiment with Linifanib + Vorinostat (first compound 0.03162 µM), 1.08; in the experiment with Linifanib + Vorinostat (first compound 0.1 µM), 0.958; in the experiment with Linifanib + Vorinostat (first compound 0.3162 µM) it was 0.825.

For the cell line NCI-H1792, the relative viability was 0.213 with Linifanib + Pictilisib (first compound 0.03162 µM); 0.311 with Linifanib + Pictilisib (first compound 0.1 µM); 0.333 with Linifanib + Pictilisib (first compound 0.3162 µM); 0.631 with Linifanib + Alpelisib (first compound 0.03162 µM); 0.738 with Linifanib + Alpelisib (first compound 0.1 µM); 0.776 with Linifanib + Alpelisib (first compound 0.3162 µM). In addition, the relative viability amounted to 0.517 with Linifanib + Phenformin (first compound 0.03162 µM); 0.519 in the experiment with Linifanib + Phenformin (first compound 0.1 µM); 0.337 in the experiment with Linifanib + Phenformin (first compound 0.3162 µM); 0.961 with Linifanib + Lapatinib (first compound 0.03162 µM); 0.973 with Linifanib + Lapatinib (first compound 0.1 µM); 0.891 with Linifanib + Lapatinib (first compound 0.3162 µM). The relative viability with Linifanib + Palbociclib (first compound 0.03162 µM) is 0.611; with Linifanib + Palbociclib (first compound 0.1 µM) it was 0.666; with Linifanib + Palbociclib (first compound 0.3162 µM), 0.621.

On to LCLC-103H, for which the relative viability worked out at 0.71 with Linifanib + Pictilisib (first compound 0.03162 µM); 0.596 in the experiment with Linifanib + Pictilisib (first compound 0.1 µM); 0.693 with Linifanib + Pictilisib (first compound 0.3162 µM); 0.838 with Linifanib + Alpelisib (first compound 0.03162 µM); 0.927 with Linifanib + Alpelisib (first compound 0.1 µM); 0.894 in the experiment with Linifanib + Alpelisib (first compound 0.3162 µM). The relative viability was 0.329 in the experiment with Linifanib + Phenformin (first compound 0.03162 µM); 0.338 with Linifanib + Phenformin (first compound 0.1 µM); 0.329 with Linifanib + Phenformin (first compound 0.3162 µM); 0.474 with Linifanib + Palbociclib (first compound 0.03162 µM); 0.417 with Linifanib + Palbociclib (first compound 0.1 µM); 0.464 with Linifanib + Palbociclib (first compound 0.3162 µM). Further, the relative viability with Linifanib + Vorinostat (first compound 0.03162 µM) stood at 0.848; with Linifanib + Vorinostat (first compound 0.1 µM), 0.764; in the experiment with Linifanib + Vorinostat (first compound 0.3162 µM), 0.734.

Consider NCI-H441, for which the relative viability with Linifanib + Pictilisib (first compound 0.03162 µM) was 0.493; in the experiment with Linifanib + Pictilisib (first compound 0.1 µM), 0.519; with Linifanib + Pictilisib (first compound 0.3162 µM), 0.479; in the experiment with Linifanib + Alpelisib (first compound 0.03162 µM), 0.649; in the experiment with Linifanib + Alpelisib (first compound 0.1 µM), 1.05; in the experiment with Linifanib + Alpelisib (first compound 0.3162 µM), 0.735. The relative viability with Linifanib + Phenformin (first compound 0.03162 µM) turned out to be 0.854; with Linifanib + Phenformin (first compound 0.1 µM), 0.93; with Linifanib + Phenformin (first compound 0.3162 µM), 0.899; with Linifanib + Palbociclib (first compound 0.03162 µM), 0.222; with Linifanib + Palbociclib (first compound 0.1 µM), 0.24; with Linifanib + Palbociclib (first compound 0.3162 µM), 0.228. Besides, the results for the relative viability with Linifanib + Vorinostat (first compound 0.03162 µM), in the experiment with Linifanib + Vorinostat (first compound 0.1 µM) and with Linifanib + Vorinostat (first compound 0.3162 µM) were 0.626, 0.81 and 0.658, respectively.
